For orientation: Ki means a measure of affinity in units of concentration, obtained from inhibition or displacement.

Some results are limits rather than exact numbers.

This passage reports Ki results from ChEMBL document CHEMBL4017445, “Development and crystallographic evaluation of histone H3 peptide with N-terminal serine substitution as a potent inhibitor of lysine-specific demethylase 1” (Bioorg Med Chem, 2017).

For the assay, the target named is Lysine-specific histone demethylase 1A (Homo sapiens, UniProt O60341). Briefly: Inhibition of human LSD1 (172 to 833 residues) assessed as reduction in H2O2 production using H3K4me2 (1 to 20 residues) peptide as substrate preincubated for 10 mins followed by substrate addition measured after 30 mins by peroxidase coupled enzyme assay.

Consider `CSCC[C@H](NC(=O)[C@@H](NC(=O)[C@H](CCCNC(=N)N)NC(=O)CO)[C@@H](C)O)C(=O)N[C@@H](CCC(N)=O)C(=O)N[C@H](C(=O)N[C@@H](C)C(=O)N[C@@H](CCCNC(=N)N)C(=O)N[C@@H](CCCCN)C(=O)N[C@@H](CO)C(=O)N[C@H](C(=O)NCC(=O)NCC(=O)N[C@@H](CCCCN)C(=O)N[C@@H](C)C(=O)N1CCC[C@H]1C(=O)N[C@@H](CCCNC(=N)N)C(=O)N[C@@H](CCCCN)C(=O)N[C@@H](CCC(N)=O)C(=O)N[C@@H](CC(C)C)C(N)=O)[C@@H](C)O)[C@@H](C)O`, for which the Ki turned out to be 170 µM.

In the case of `CSCC[C@H](NC(=O)[C@@H](NC(=O)[C@@H](N)CCCNC(=N)N)[C@@H](C)O)C(=O)N[C@@H](CCC(N)=O)C(=O)N[C@H](C(=O)N[C@@H](C)C(=O)N[C@@H](CCCNC(=N)N)C(=O)N[C@@H](CCCCN)C(=O)N[C@@H](CO)C(=O)N[C@H](C(=O)NCC(=O)NCC(=O)N[C@@H](CCCCN)C(=O)N[C@@H](C)C(=O)N1CCC[C@H]1C(=O)N[C@@H](CCCNC(=N)N)C(=O)N[C@@H](CCCCN)C(=O)N[C@@H](CCC(N)=O)C(=O)N[C@@H](CC(C)C)C(N)=O)[C@@H](C)O)[C@@H](C)O`, the Ki was greater than 500 µM.
